# Data as given in PubChem BioAssay AID1963856 (Molecular Pharmacology Branch, DTP, NCI, 2024).
# Several values for one entry are separate records, joined by “and”; a condition that tells them apart may be missing. Equal values may be shown once.
# Test system: LG0567-F671-PDC KRAS tumor spheroid viability
# Test: Anticancer human tumor LG0567-F671-PDC patient-derived lung adenocarcinoma cell line growth inhibition [KRAS2]
# Settings: spheroids with HUVEC and MSC; for viability, T/C: stronger effect = lower value
# In short: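 Combination screen of spheroid viability in tumor-cell co-cultures with endothelial (HUVEC) and mesenchymal stem cell stroma. Each agent was tested in half-log dilutions, topping at clinical Cmax or at 10 microM without a known Cmax.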
# [1] = curve of first compound, second compound 0.1 µM
# [2] = curve of first compound, second compound 0.316 µM
# [3] = curve of first compound, second compound 1 µM
# [4] = curve of first compound, second compound 3.16 µM
# [5] = curve of first compound, second compound 10 µM
# [6] = second compound 0.1 µM, first compound 0.000316 µM
# [7] = second compound 0.1 µM, first compound 0.001 µM
# [8] = second compound 0.1 µM, first compound 0.00316 µM
# [9] = second compound 0.1 µM, first compound 0.01 µM
# [10] = second compound 0.1 µM, first compound 0.0316 µM
# [11] = second compound 0.1 µM, first compound 0.1 µM
# [12] = second compound 0.316 µM, first compound 0.000316 µM
# [13] = second compound 0.316 µM, first compound 0.001 µM
# [14] = second compound 0.316 µM, first compound 0.00316 µM
# [15] = second compound 0.316 µM, first compound 0.01 µM
# [16] = second compound 0.316 µM, first compound 0.0316 µM
# [17] = second compound 0.316 µM, first compound 0.1 µM
# [18] = second compound 1 µM, first compound 0.000316 µM
# [19] = second compound 1 µM, first compound 0.001 µM
# [20] = second compound 1 µM, first compound 0.00316 µM
# [21] = second compound 1 µM, first compound 0.01 µM
# [22] = second compound 1 µM, first compound 0.0316 µM
# [23] = second compound 1 µM, first compound 0.1 µM
# [24] = second compound 3.16 µM, first compound 0.000316 µM
# [25] = second compound 3.16 µM, first compound 0.001 µM
# [26] = second compound 3.16 µM, first compound 0.00316 µM
# [27] = second compound 3.16 µM, first compound 0.01 µM
# [28] = second compound 3.16 µM, first compound 0.0316 µM
# [29] = second compound 3.16 µM, first compound 0.1 µM
# [30] = second compound 10 µM, first compound 0.0316 µM
# [31] = second compound 10 µM, first compound 0.1 µM
# [32] = second compound 0.1 µM, first compound 0.316 µM
# [33] = second compound 0.1 µM, first compound 1 µM
# [34] = second compound 0.1 µM, first compound 3.16 µM
# [35] = second compound 0.1 µM, first compound 10 µM
# [36] = second compound 0.316 µM, first compound 0.316 µM
# [37] = second compound 0.316 µM, first compound 1 µM
# [38] = second compound 0.316 µM, first compound 3.16 µM
# [39] = second compound 0.316 µM, first compound 10 µM
# [40] = second compound 1 µM, first compound 0.316 µM
# [41] = second compound 1 µM, first compound 1 µM
# [42] = second compound 1 µM, first compound 3.16 µM
# [43] = second compound 1 µM, first compound 10 µM
# [44] = second compound 3.16 µM, first compound 0.316 µM
# [45] = second compound 3.16 µM, first compound 1 µM
# [46] = second compound 3.16 µM, first compound 3.16 µM
# [47] = second compound 3.16 µM, first compound 10 µM
# [48] = second compound 10 µM, first compound 0.316 µM
# [49] = second compound 10 µM, first compound 1 µM
# [50] = second compound 10 µM, first compound 3.16 µM
# [51] = second compound 10 µM, first compound 10 µM
# 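Further: drug exposure lasted seven days after spheroids formed for three days.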
# 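Wherever viability, T/C is given: 100% = DMSO vehicle control viability.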
smiles,measurement,setting,value
CC(C)n1nc(-c2ccc3oc(N)nc3c2)c2c(N)ncnc21 + CC1OCC2(CCN(c3cnc(Sc4ccnc(N)c4Cl)c(N)n3)CC2)C1N,IC50,[1],< 0.000316 µM
same,IC50,[2],< 0.000316 µM
same,IC50,[3],< 0.000316 µM
same,IC50,[4],< 0.000316 µM
same,IC50,[5],< 0.000316 µM
same,"viability, T/C",[6],43.3%
same,"viability, T/C",[7],48.6%
same,"viability, T/C",[8],25.5%
same,"viability, T/C",[9],18%
same,"viability, T/C",[10],16.2%
same,"viability, T/C",[11],10.6%
same,"viability, T/C",[12],35.9%
same,"viability, T/C",[13],29%
same,"viability, T/C",[14],21%
same,"viability, T/C",[15],11.8%
same,"viability, T/C",[16],7.3%
same,"viability, T/C",[17],6.32%
same,"viability, T/C",[18],25.8%
same,"viability, T/C",[19],18.8%
same,"viability, T/C",[20],11.4%
same,"viability, T/C",[21],5.96%
same,"viability, T/C",[22],4.63%
same,"viability, T/C",[23],3.58%
same,"viability, T/C",[24],17.4%
same,"viability, T/C",[25],12%
same,"viability, T/C",[26],6.04%
same,"viability, T/C",[27],2.59%
same,"viability, T/C",[28],2.37%
same,"viability, T/C",[29],1.36%
same,"viability, T/C","second compound 10 µM, first compound 0.000316 µM",7.01%
same,"viability, T/C","second compound 10 µM, first compound 0.001 µM",5.93%
same,"viability, T/C","second compound 10 µM, first compound 0.00316 µM",3.89%
same,"viability, T/C","second compound 10 µM, first compound 0.01 µM",2.31%
same,"viability, T/C",[30],1.59%
same,"viability, T/C",[31],1.8%
CC1(C)CCC(CN2CCN(c3ccc(C(=O)NS(=O)(=O)c4ccc(NCC5CCOCC5)c([N+](=O)[O-])c4)c(Oc4cnc5[nH]ccc5c4)c3)CC2)=C(c2ccc(Cl)cc2)C1 + CC1OCC2(CCN(c3cnc(Sc4ccnc(N)c4Cl)c(N)n3)CC2)C1N,IC50,[1],< 0.0316 µM
same,IC50,[2],< 0.0316 µM
same,IC50,[3],< 0.0316 µM
same,IC50,[4],< 0.0316 µM
same,IC50,[5],< 0.0316 µM
same,"viability, T/C",[10],47%
same,"viability, T/C",[11],44.4%
same,"viability, T/C",[32],41.8%
same,"viability, T/C",[33],39.1%
same,"viability, T/C",[34],15.4%
same,"viability, T/C",[35],3.67%
same,"viability, T/C",[16],42.2%
same,"viability, T/C",[17],31.9%
same,"viability, T/C",[36],33.4%
same,"viability, T/C",[37],32.9%
same,"viability, T/C",[38],9.77%
same,"viability, T/C",[39],2.77%
same,"viability, T/C",[22],27.8%
same,"viability, T/C",[23],26.2%
same,"viability, T/C",[40],27%
same,"viability, T/C",[41],27.1%
same,"viability, T/C",[42],8.05%
same,"viability, T/C",[43],1.79%
same,"viability, T/C",[28],22.9%
same,"viability, T/C",[29],24%
same,"viability, T/C",[44],18.3%
same,"viability, T/C",[45],16.1%
same,"viability, T/C",[46],2.78%
same,"viability, T/C",[47],2.97%
same,"viability, T/C",[30],12.2%
same,"viability, T/C",[31],15.4%
same,"viability, T/C",[48],11.1%
same,"viability, T/C",[49],10.7%
same,"viability, T/C",[50],2.4%
same,"viability, T/C",[51],0.54%
CC(C)n1nc(-c2ccc3oc(N)nc3c2)c2c(N)ncnc21 + C=CC(=O)N1CCN(c2nc(OCC3CCCN3C)nc3c2CCN(c2cccc4cccc(C)c24)C3)CC1CC#N,IC50,"curve of first compound, second compound 0.0316 µM",< 0.000316 µM
same,IC50,[1],< 0.000316 µM
same,IC50,[2],< 0.000316 µM
same,IC50,[3],< 0.000316 µM
same,IC50,[4],< 0.000316 µM
same,"viability, T/C","second compound 0.0316 µM, first compound 0.000316 µM",33.2%
same,"viability, T/C","second compound 0.0316 µM, first compound 0.001 µM",28.2%
same,"viability, T/C","second compound 0.0316 µM, first compound 0.00316 µM",20.5%
same,"viability, T/C","second compound 0.0316 µM, first compound 0.01 µM",19.3%
same,"viability, T/C","second compound 0.0316 µM, first compound 0.0316 µM",13.4%
same,"viability, T/C","second compound 0.0316 µM, first compound 0.1 µM",12.8%
same,"viability, T/C",[6],29.1%
same,"viability, T/C",[7],27%
same,"viability, T/C",[8],18.3%
same,"viability, T/C",[9],15.4%
same,"viability, T/C",[10],13.7%
same,"viability, T/C",[11],10.6%
same,"viability, T/C",[12],32.7%
same,"viability, T/C",[13],33.5%
same,"viability, T/C",[14],21.2%
same,"viability, T/C",[15],17.7%
same,"viability, T/C",[16],11.1%
same,"viability, T/C",[17],10.1%
same,"viability, T/C",[18],37.6%
same,"viability, T/C",[19],31.6%
same,"viability, T/C",[20],25.6%
same,"viability, T/C",[21],14.4%
same,"viability, T/C",[22],12.5%
same,"viability, T/C",[23],9.9%
same,"viability, T/C",[24],35%
same,"viability, T/C",[25],11.4%
same,"viability, T/C",[26],14.5%
same,"viability, T/C",[27],5.93%
same,"viability, T/C",[28],5.55%
same,"viability, T/C",[29],2.27%
CCNC(=O)CC1N=C(c2ccc(Cl)cc2)c2cc(OC)ccc2-n2c(C)nnc21 (centres undefined) + COc1cc2nc(C)nc(NC(C)c3cc(N)cc(C(F)(F)F)c3)c2cc1OC1CCOC1,IC50,[1],0.41 µM
same,IC50,[2],0.411 µM
same,IC50,[3],0.403 µM
same,IC50,[4],0.319 µM
same,IC50,[5],0.224 µM
same,"viability, T/C",[10],97%
same,"viability, T/C",[11],82.3%
same,"viability, T/C",[32],61.6%
same,"viability, T/C",[33],17.1%
same,"viability, T/C",[34],8.29%
same,"viability, T/C",[35],5.17%
same,"viability, T/C",[16],109%
same,"viability, T/C",[17],96.5%
same,"viability, T/C",[36],62.3%
same,"viability, T/C",[37],10%
same,"viability, T/C",[38],8.83%
same,"viability, T/C",[39],7.95%
same,"viability, T/C",[22],84.6%
same,"viability, T/C",[23],87.8%
same,"viability, T/C",[40],60.9%
same,"viability, T/C",[41],9.34%
same,"viability, T/C",[42],7.07%
same,"viability, T/C",[43],8.48%
same,"viability, T/C",[28],78.9%
same,"viability, T/C",[29],69.9%
same,"viability, T/C",[44],50.8%
same,"viability, T/C",[45],9.17%
same,"viability, T/C",[46],6.95%
same,"viability, T/C",[47],10.1%
same,"viability, T/C",[30],74.5%
same,"viability, T/C",[31],59.8%
same,"viability, T/C",[48],47.5%
same,"viability, T/C",[49],20.6%
same,"viability, T/C",[50],10%
same,"viability, T/C",[51],8.82%
COc1cc2nc(C)nc(NC(C)c3cc(N)cc(C(F)(F)F)c3)c2cc1OC1CCOC1 (centres undefined),"viability, T/C",compound 0.316 µM,71.1% [middle of 17 runs]
same,IC50,"compound alone, run of 07/12/2021",> 10 µM and 2.62 µM and 2.85 µM
same,IC50,"compound alone, run of 07/19/2021",> 10 µM
same,IC50,"compound alone, run of 07/26/2021",> 10 µM
